This is an account of results in ChEMBL document CHEMBL3217443, “The Discovery of Novel 10,11-Dihydro-5H-dibenz[b,f]azepine SIRT2 Inhibitors” (Medchemcomm, 2012).

Test [1] addresses T1, NAD-dependent protein deacetylase sirtuin-2 (Homo sapiens) (UniProt Q8IXJ6).
T1 sequence (whole entry): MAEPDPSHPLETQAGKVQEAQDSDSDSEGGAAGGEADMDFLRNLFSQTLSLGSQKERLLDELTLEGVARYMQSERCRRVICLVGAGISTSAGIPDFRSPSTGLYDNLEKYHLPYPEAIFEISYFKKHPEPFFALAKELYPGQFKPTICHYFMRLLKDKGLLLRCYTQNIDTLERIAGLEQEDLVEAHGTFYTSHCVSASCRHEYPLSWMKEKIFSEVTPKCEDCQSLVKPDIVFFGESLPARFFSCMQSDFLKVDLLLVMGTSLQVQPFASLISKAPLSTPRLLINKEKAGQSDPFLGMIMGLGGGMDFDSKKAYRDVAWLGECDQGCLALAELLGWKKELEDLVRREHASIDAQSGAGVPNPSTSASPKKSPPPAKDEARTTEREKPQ
The test is described as follows: Inhibition of recombinant human full length SIRT2 using fluorescent ZMAL as substrate at 50 uM after 4 hrs by homogeneous fluorescent deacetylase assay.

Test [2] concerns the target T2, NAD-dependent protein deacetylase sirtuin-1 (Homo sapiens) (UniProt Q96EB6).
T2 sequence (whole entry): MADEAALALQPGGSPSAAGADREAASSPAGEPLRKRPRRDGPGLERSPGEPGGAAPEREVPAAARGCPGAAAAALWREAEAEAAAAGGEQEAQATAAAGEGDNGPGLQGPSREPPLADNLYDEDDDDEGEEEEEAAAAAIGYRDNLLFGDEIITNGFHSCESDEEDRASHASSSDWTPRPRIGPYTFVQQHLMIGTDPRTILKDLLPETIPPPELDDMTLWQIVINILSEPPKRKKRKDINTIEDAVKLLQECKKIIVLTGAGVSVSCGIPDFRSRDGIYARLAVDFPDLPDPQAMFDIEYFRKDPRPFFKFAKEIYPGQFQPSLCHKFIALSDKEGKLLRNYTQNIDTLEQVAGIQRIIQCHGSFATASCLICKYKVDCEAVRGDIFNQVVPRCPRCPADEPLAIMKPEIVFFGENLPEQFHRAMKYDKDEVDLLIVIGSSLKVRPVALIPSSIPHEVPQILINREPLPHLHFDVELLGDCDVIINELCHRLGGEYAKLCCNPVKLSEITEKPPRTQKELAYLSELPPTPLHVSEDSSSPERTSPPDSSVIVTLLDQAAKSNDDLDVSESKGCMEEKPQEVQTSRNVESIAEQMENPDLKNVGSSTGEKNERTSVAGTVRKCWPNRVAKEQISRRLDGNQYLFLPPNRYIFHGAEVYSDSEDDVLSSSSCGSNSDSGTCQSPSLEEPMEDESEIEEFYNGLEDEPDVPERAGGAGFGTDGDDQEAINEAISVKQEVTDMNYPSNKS
The test is described as follows: Inhibition of recombinant human N-tagged GST-SIRT1 fusion protein using fluorescent ZMAL as substrate at 50 uM after 4 hrs by homogeneous fluorescent deacetylase assay.

Test [3] concerns MCF7. The test is described as follows: Antiproliferative activity against human MCF7 cells at 30 uM after 24 to 72 hrs. Type of test: functional.
For test [4], the system named is MCF7. The test can be described thus: Cell cycle arrest in human MCF7 cells assessed as accumulation at S phase at 50 uM after 24 hrs by flow cytometry (reference value: 30.8 %). Type of test: functional.
For a further test, the species on record is Homo sapiens. The test is described as follows: Selectivity ratio of IC50 for recombinant human N-tagged GST-SIRT1 fusion protein to IC50 for recombinant human full length SIRT2.
In test [5] the target is T3, NAD-dependent protein deacetylase sirtuin-2 (Homo sapiens, UniProt Q8IXJ6).
T3 sequence (Q8IXJ6 whole entry): T1 sequence (whole entry)
The test is described as follows: Inhibition of recombinant human full length SIRT2 using fluorescent ZMAL as substrate after 4 hrs by homogeneous fluorescent deacetylase assay.

Test [6] concerns the target T1, NAD-dependent protein deacetylase sirtuin-2 (Homo sapiens). The test is described as follows: Inhibition of SIRT2 in human MCF7 cells assessed as increase in hyperacetylation of alpha-tubulin up to 50 uM after 24 hrs by Western blot analysis. Type of test: cell-based.
For test [7], the target named is T2, NAD-dependent protein deacetylase sirtuin-1 (Homo sapiens). The test can be described thus: Inhibition of SIRT1 in human MCF7 cells assessed as increase in acetylation of H3-K9 up to 50 uM after 24 hrs by Western blot analysis. Type of test: cell-based.
Test [8] has as its target T1, NAD-dependent protein deacetylase sirtuin-2 (Homo sapiens). The test is described as follows: Inhibition of SIRT2 in human MCF7 cells assessed as decrease in phosphorylation of pRB at Ser807/Ser811 at 50 uM after 24 hrs by Western blot analysis. Type of test: cell-based.
In test [9] the test system is MCF7. The test can be described thus: Cell cycle arrest in human MCF7 cells assessed as accumulation at sub-G1 phase at 50 uM after 24 hrs by flow cytometry (reference value: 0.3 %). Type of test: functional.
Test [10] addresses T2, NAD-dependent protein deacetylase sirtuin-1 (Homo sapiens). The test can be described thus: Inhibition of recombinant human N-tagged GST-SIRT1 fusion protein using fluorescent ZMAL as substrate at 100 uM after 4 hrs by homogeneous fluorescent deacetylase assay.
Test [11] shares this target. The test can be described thus: Inhibition of recombinant human N-tagged GST-SIRT1 fusion protein using fluorescent ZMAL as substrate at 500 uM after 4 hrs by homogeneous fluorescent deacetylase assay.
Test [12] shares this target. The test is described as follows: Inhibition of SIRT1 in human MCF7 cells assessed as increase in acetylation of p53 at lys 382 at 50 uM after 24 hrs by Western blot analysis. Type of test: cell-based.
The subject of test [13] is MCF7. The test can be described thus: Cell cycle arrest in human MCF7 cells assessed as accumulation at G1 phase at 50 uM after 24 hrs by flow cytometry (reference value: 43.5 %). Type of test: functional.
Test [14] deals with MCF7. The test is described as follows: Cell cycle arrest in human MCF7 cells assessed as accumulation at G2-M phase at 50 uM after 24 hrs by flow cytometry (reference value: 22.6 %). Type of test: functional.
Test [15] addresses T4, NAD-dependent protein deacetylase sirtuin-1 (Homo sapiens, UniProt Q96EB6).
T4 sequence (Q96EB6 whole entry): T2 sequence (whole entry)
Description: Inhibition of recombinant human N-tagged GST-SIRT1 fusion protein using fluorescent ZMAL as substrate after 4 hrs by homogeneous fluorescent deacetylase assay

pIC50: −log10 of the molar value. The source made the active and inactive calls. No cut-off for these calls is given here.

For the compound `OCc1ccc2c(c1)CCc1cccc(CO)c1N2`, the inhibition in [1] and in [2] was less than 25% in each case.
As to `NC(=O)c1ccc2c(c1)CCc1cc([N+](=O)[O-])ccc1N2`, in the test on MCF7 [3], the outcome was Active. Besides, the Activity in the test with MCF7 [4] worked out at 18%; in the test on MCF7 [9], 0.9%; in the test on MCF7 [13], 42.2%; in the test with MCF7 [14], 38.9%. For the same compound, the Ratio IC50 in the test listed under Homo sapiens is greater than 30. In test [5], the pIC50 is 4.75. The inhibition result in test [6] and in test [8] was “Active” throughout. Also, the inhibition entry in test [7] and in test [12] was “inactive” throughout. For the same compound, the inhibition in [10] worked out at 1%; in test [11], 11%.
As for `NC(=O)c1ccc2c(c1)CCc1cccc(CO)c1N2`, the inhibition in test [1] and in [2] was less than 25% throughout.
Consider `NC(=O)N1c2ccccc2CCc2ccccc21`, for which the inhibition in [1] and in test [2] was less than 25% in each case.
Turning to `NC(=O)c1cccc2c1Nc1ccccc1CC2`, the inhibition in [1] and in [2] was less than 25% in each case.
For the compound `N#Cc1ccc2c(c1)CCc1ccccc1N2`, the inhibition in test [1] and in [2] was less than 25% throughout.
For `O=[N+]([O-])c1ccc2c(c1)Nc1ccccc1CC2`, the inhibition in [1] and in test [2] was less than 25% each time.
With `NC(=O)c1ccc2c(c1)CCc1cc(C(N)=O)ccc1N2`, the inhibition in test [1] and in test [2] was less than 25% each time.
Take `CC(C)(C)NS(=O)(=O)c1ccc2c(c1)Nc1ccccc1CC2`: in test [5], the pIC50 is 4.53. Also, the inhibition in [10] was 12%.
`N#Cc1ccc2c(c1)CCc1cc(C(N)=O)ccc1N2`: the inhibition in test [1] and in [2] was less than 25% in each case.
For the compound `NC(=O)C1CCCc2c1[nH]c1ccc(Cl)cc21` (stereo not drawn), the Activity was 50% in the test with MCF7 [3]; 10.3% in the test on MCF7 [4]; 1.2% with MCF7 [9]; 73.8% with MCF7 [13]; 15.7% in the test with MCF7 [14].
Turning to `N#Cc1ccc2c(c1)CCc1cc([N+](=O)[O-])ccc1N2`, the inhibition in test [1] and in test [2] was less than 25% throughout.
As to `CC(NC(=O)c1ccccc1/N=C/c1c(O)ccc2ccccc12)c1ccccc1` (stereo not drawn) [SIRTINOL], the result in the test with MCF7 [3] was Active. Further, the Activity was 9.7% in the test on MCF7 [4], 0.7% in the test on MCF7 [9], 71.5% in the test on MCF7 [13] and 18% in the test with MCF7 [14]. Also, the inhibition entry in test [6] and in [7] was “inactive” each time. Besides, the inhibition result in test [12] is “Active”.
In the case of `CC(C)(C)NC(=O)c1ccc2c(c1)CCc1ccccc1N2`, the pIC50 in test [5] is 4.00. The inhibition in test [2] was less than 25%.
For `O=[N+]([O-])c1ccc2c(c1)CCc1ccccc1N2`, the inhibition in test [1] and in test [2] was less than 25% in each case.
Regarding `c1ccc2c(c1)CCc1ccccc1N2`, the inhibition in test [1] and in [2] was less than 25% throughout.
As for `N#Cc1ccc2c(c1)CCc1cc(C#N)ccc1N2`, the inhibition in test [1] and in test [2] was less than 25% in each case.
Regarding `NC(=O)c1ccc2c(c1)CCc1cc(N)ccc1N2`, the inhibition in test [1] and in [2] was less than 25% each time.
Take `OCc1ccc2c(c1)CCc1cc(CO)ccc1N2`: the inhibition in test [1] and in test [2] was less than 25% each time.
Consider `CN1c2ccc(C(N)=O)cc2CCc2cc([N+](=O)[O-])ccc21`, for which the pIC50 in test [5] was 4.11. Moreover, the inhibition in test [10] was 23%.
Take `NC(=O)c1ccc2c(c1)CCc1cc(Cl)ccc1N2`: the inhibition in test [1] and in test [2] was less than 25% throughout.
On to `CC(C(=O)Nc1cccc(/N=C/c2c(O)ccc3ccccc23)c1)c1ccccc1` (stereo not drawn) [SALERMIDE], for which the outcome in the test on MCF7 [3] was Active. Further, the Activity in the test on MCF7 [4] is listed as 16.4%; in the test with MCF7 [9], 1.1%; in the test on MCF7 [13], 56.1%; in the test with MCF7 [14], 26.4%. Besides, the negative logarithm of the IC50 (pIC50) in test [5] was 4.35; in [15], 4.12. Also, the inhibition result in test [6] and in [12] was “Active” throughout. The inhibition entry in test [7] is “inactive”.
For the compound `NC(=O)c1ccc2c(c1)CCc1ccccc1N2`, the inhibition in test [1] and in test [2] was less than 25% each time.
As to `NC(=O)c1ccc2c(c1)CCc1cccc([N+](=O)[O-])c1N2`, the inhibition in test [1] and in test [2] was less than 25% in each case.
As to `O=C(Nc1cccc(Br)c1)c1cccc(S(=O)(=O)N2CCCCCC2)c1`, the Activity in the test with MCF7 [4] stood at 20%; in the test with MCF7 [9], 0.4%; in the test on MCF7 [13], 54.3%; in the test with MCF7 [14], 25.3%. The inhibition result in test [7] is “inactive”. Also, the inhibition entry in test [12] was “Active”. In addition, the inhibition in test [2] is less than 25%.
